The record followed here is patent US11986532B2 (Arvinas Operations, Inc., priority 2021, dated 2024).

This assay deals with T1, BCL6 (Homo sapiens, UniProt P41182).
T1 construct: endogenous in cells; host or cells: T47D breast cancer epithelial cells
Kind of assay: Immunofluorescence protocol for high content imaging of BCL6 (degradation) in T47D cells, 3 days compound treatment. Format: cell-based. The settings on record: T47D cells, 3 days compound treatment; for DC50: read-out: Mean DC50 (nM)* category; for Dmax: read-out: Mean Dmax (%)** category. An outline of the steps:
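Remaining BCL6 in breast cancer T47D cells was measured by high-content immunofluorescence imaging after 3 days of treatment with serially diluted compound (top 0.1 or 1 μM). Nuclei were stained with Hoechst and cells with CellMask.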

The DC50 is the concentration giving 50% degradation. Usually Dmax stands for the largest share of the target that was removed. Consider `CNC(=O)COc1cc2cc(Nc3nc(N4CCC(O[C@H]5C[C@H](N6CCC(c7ccc8c(c7F)CN(C7CCC(=O)NC7=O)C8=O)CC6)C5)CC4)ncc3Cl)ccc2n(C2CCCC2)c1=O` (stereo partly shown) [Compound 191, 2-({6-[(5-chloro-2-{4-[(1r,3r)-3-{4-[2-(2,6-dioxopiperidin-3-yl)-4-fluoro-1-oxo-2,3-dihydro-1H-isoindol-5-yl]piperidin-1-yl}cyclobutoxy]piperidin-1-yl}pyrimidin-4-yl)amino]-1-cyclopentyl-2-oxo-1,2-dihydroquinolin-3-yl}oxy)-N-methylacetamide], for which the half-maximal degradation concentration (DC50) was < 10 nM and the greatest degradation seen (Dmax) was ≥ 70%.

Turning to `CNC(=O)COc1cc2cc(Nc3nc(N4CCC(O[C@H]5C[C@H](N6CCN(c7ccc8c(n7)CN(C7CCC(=O)NC7=O)C8=O)[C@@H](C)C6)C5)CC4)ncc3Cl)ccc2n(C(C)C)c1=O` (stereo partly shown) [Compound 192], the DC50 was < 10 nM and the maximal degradation (Dmax) was ≥ 70%.

Consider `CNC(=O)COc1cc2cc(Nc3nc(N4CCC(O[C@H]5C[C@H](N6CCN(c7ccc8c(c7C)C(=O)N(C7CCC(=O)NC7=O)C8=O)[C@H](C)C6)C5)CC4)ncc3Cl)ccc2n(C(C)C)c1=O` (stereo partly drawn) [Compound 193, 2-({6-[(5-chloro-2-{4-[(1r,3r)-3-[(3R)-4-[2-(2,6-dioxopiperidin-3-yl)-4-methyl-1,3-dioxoisoindol-5-yl]-3-methylpiperazin-1-yl]cyclobutoxy]piperidin-1-yl}pyrimidin-4-yl)amino]-1-isopropyl-2-oxoquinolin-3-yl}oxy)-N-methylacetamide], for which the DC50 was < 10 nM and the maximal degradation (Dmax) is ≥ 70%.

Turning to `CNC(=O)COc1cc2cc(Nc3nc(N4CCC(O[C@H]5C[C@H](N6CCN(c7ccc8c(c7C)C(=O)N(C7CCC(=O)NC7=O)C8=O)C[C@@H]6C)C5)CC4)ncc3Cl)ccc2n(C(C)C)c1=O` (stereo partly drawn) [Compound 194, 2-({6-[(5-chloro-2-{4-[(1r,3r)-3-[(2S)-4-[2-(2,6-dioxopiperidin-3-yl)-4-methyl-1,3-dioxo-2,3-dihydro-1H-isoindol-5-yl]-2-methylpiperazin-1-yl]cyclobutoxy]piperidin-1-yl}pyrimidin-4-yl)amino]-2-oxo-1-(propan-2-yl)-1,2-dihydroquinolin-3-yl}oxy)-N-methylacetamide], the 50% degradation concentration (DC50) was < 10 nM and the Dmax is ≥ 70%.

With `CNC(=O)COc1cc2c(F)c(Nc3nc(N4CCC(O[C@H]5C[C@H](N6CCN(c7ccc8c(c7C)C(=O)N(C7CCC(=O)NC7=O)C8=O)CC6)C5)CC4)ncc3Cl)ccc2n(C(C)C)c1=O` (stereo partly shown) [Compound 195], the DC50 was < 10 nM and the Dmax was ≥ 70%.

Take `CC[C@H]1CN([C@H]2C[C@H](OC3CCN(c4ncc(Cl)c(Nc5ccc6c(c5)cc(OCC(=O)NC)c(=O)n6C(C)C)n4)CC3)C2)CCN1c1ccc2c(c1Cl)CN(C1CCC(=O)NC1=O)C2=O` (stereo partly drawn) [Compound 196, 2-({6-[(5-chloro-2-{4-[(1r,3r)-3-[(3S)-4-[4-chloro-2-(2,6-dioxopiperidin-3-yl)-1-oxo-2,3-dihydro-1H-isoindol-5-yl]-3-ethylpiperazin-1-yl]cyclobutoxy]piperidin-1-yl}pyrimidin-4-yl)amino]-2-oxo-1-(propan-2-yl)-1,2-dihydroquinolin-3-yl}oxy)-N-methylacetamide]: the half-maximal degradation concentration (DC50) was < 10 nM and the Dmax is ≥ 70%.

As to `CNC(=O)COc1cc2cc(Nc3nc(N4CCC(O[C@H]5C[C@H](N6CCC(c7ccc8c(c7C)CN(C7CCC(=O)NC7=O)C8=O)CC6)C5)CC4)ncc3Cl)ccc2n(C(C)C)c1=O` (stereo partly shown) [Compound 197], the 50% degradation concentration (DC50) is < 10 nM and the maximal degradation (Dmax) was ≥ 70%.

Turning to `CNC(=O)COc1cc2cc(Nc3nc(N4CCC(O[C@H]5C[C@H](N6CCN(c7ccc8c(n7)CN(C7CCC(=O)NC7=O)C8=O)[C@H](C)C6)C5)CC4)ncc3Cl)ccc2n(C(C)C)c1=O` (stereo partly drawn) [Compound 198, 2-({6-[(5-chloro-2-{4-[(1r,3r)-3-[(3R)-4-[6-(2,6-dioxopiperidin-3-yl)-5-oxo-5H,6H,7H-pyrrolo[3,4-b]pyridin-2-yl]-3-methylpiperazin-1-yl]cyclobutoxy]piperidin-1-yl}pyrimidin-4-yl)amino]-2-oxo-1-(propan-2-yl)-1,2-dihydroquinolin-3-yl}oxy)-N-methylacetamide], the DC50 was < 10 nM and the Dmax is ≥ 70%.

For the compound `CNC(=O)COc1cc2c(F)c(Nc3nc(N4CCC(O[C@H]5C[C@H](N6CCN(c7ccc8c(c7C)C(=O)N(C7CCC(=O)NC7=O)C8=O)[C@H](C)C6)C5)CC4)ncc3Cl)ccc2n(C(C)C)c1=O` (stereo partly shown) [Compound 199], the 50% degradation concentration (DC50) is < 10 nM and the Dmax was ≥ 70%.

With `CCc1c(N2CCN([C@H]3C[C@H](OC4CCN(c5ncc(Cl)c(Nc6ccc7c(c6)cc(OCC(=O)NC)c(=O)n7C(C)C)n5)CC4)C3)CC2)ccc2c1C(=O)N(C1CCC(=O)NC1=O)C2=O` (stereo partly shown) [Compound 200, 2-({6-[(5-chloro-2-{4-[(1r,3r)-3-{4-[2-(2,6-dioxopiperidin-3-yl)-4-ethyl-1,3-dioxo-2,3-dihydro-1H-isoindol-5-yl]piperazin-1-yl}cyclobutoxy]piperidin-1-yl}pyrimidin-4-yl)amino]-2-oxo-1-(propan-2-yl)-1,2-dihydroquinolin-3-yl}oxy)-N-methylacetamide], the DC50 is 10 to 50 nM and the Dmax was ≥ 70%.

With `CNC(=O)COc1cc2cc(Nc3nc(N4CCC(O[C@H]5C[C@H](N6CCC(c7ccc8c(c7F)CN(C7CCC(=O)NC7=O)C8=O)C(F)C6)C5)CC4)ncc3Cl)ccc2n(C(C)C)c1=O` (stereo partly shown) [Compound 201, 2-[[6-[[5-chloro-2-[4-[3-[4-[2-(2,6-dioxo-3-piperidyl)-4-fluoro-1-oxo-isoindolin-5-yl]-3-fluoro-1-piperidyl]cyclobutoxy]-1-piperidyl]pyrimidin-4-yl]amino]-1-isopropyl-2-oxo-3-quinolyl]oxy]-N-methyl-acetamide], the DC50 was < 10 nM and the Dmax is ≥ 70%.

Turning to `CNC(=O)COc1cc2cc(Nc3nc(N4CCC(O[C@H]5C[C@H](N6CCN(c7ccc8c(c7Cl)CN(C7CCC(=O)NC7=O)C8=O)[C@H](C)C6)C5)CC4)ncc3Cl)ccc2n(C(C)C)c1=O` (stereo partly drawn) [Compound 202, 2-({6-[(5-chloro-2-{4-[(1r,3r)-3-[(3R)-4-[4-chloro-2-(2,6-dioxopiperidin-3-yl)-1-oxo-2,3-dihydro-1H-isoindol-5-yl]-3-methylpiperazin-1-yl]cyclobutoxy]piperidin-1-yl}pyrimidin-4-yl)amino]-2-oxo-1-(propan-2-yl)-1,2-dihydroquinolin-3-yl}oxy)-N-methylacetamide], the half-maximal degradation concentration (DC50) was < 10 nM and the Dmax was ≥ 70%.

Consider `CNC(=O)COc1cc2cc(Nc3nc(N4CCC(O[C@H]5C[C@H](N6CCN(c7ccc8c(n7)C(C)N(C7CCC(=O)NC7=O)C8=O)[C@@H](C)C6)C5)CC4)ncc3Cl)ccc2n(C(C)C)c1=O` (stereo partly shown) [Compound 204], for which the DC50 is < 10 nM and the Dmax is ≥ 70%.

As to `CC[C@@H]1CN([C@H]2C[C@H](OC3CCN(c4ncc(Cl)c(Nc5ccc6c(c5)cc(OCC(=O)NC)c(=O)n6C(C)C)n4)CC3)C2)CCN1c1ccc2c(c1Cl)CN(C1CCC(=O)NC1=O)C2=O` (stereo partly drawn) [Compound 205, 2-({6-[(5-chloro-2-{4-[(1r,3r)-3-[(3R)-4-[4-chloro-2-(2,6-dioxopiperidin-3-yl)-1-oxo-2,3-dihydro-1H-isoindol-5-yl]-3-ethylpiperazin-1-yl]cyclobutoxy]piperidin-1-yl}pyrimidin-4-yl)amino]-2-oxo-1-(propan-2-yl)-1,2-dihydroquinolin-3-yl}oxy)-N-methylacetamide], the DC50 was < 10 nM and the Dmax is ≥ 70%.

As to `CNC(=O)COc1cc2cc(Nc3nc(N4CCC(O[C@H]5C[C@H](N6CCN(c7ccc8c(c7Cl)CN(C7CCC(=O)NC7=O)C8=O)[C@@H](C)C6)C5)CC4)ncc3Cl)ccc2n(C(C)C)c1=O` (stereo partly drawn) [Compound 206, 2-({6-[(5-chloro-2-{4-[(1r,3r)-3-[(3S)-4-[4-chloro-2-(2,6-dioxopiperidin-3-yl)-1-oxo-2,3-dihydro-1H-isoindol-5-yl]-3-methylpiperazin-1-yl]cyclobutoxy]piperidin-1-yl}pyrimidin-4-yl)amino]-2-oxo-1-(propan-2-yl)-1,2-dihydroquinolin-3-yl}oxy)-N-methylacetamide], the DC50 is < 10 nM and the Dmax was ≥ 70%.

For the compound `CNC(=O)COc1cc2cc(Nc3nc(N4CCC(O[C@H]5C[C@H](N6C[C@@H](C)N(c7ccc8c(c7C)C(=O)N(C7CCC(=O)NC7=O)C8=O)C[C@@H]6C)C5)CC4)ncc3Cl)ccc2n(C(C)C)c1=O` (stereo partly drawn) [Compound 207, 2-({6-[(5-chloro-2-{4-[(1r,3r)-3-[(2S,5R)-4-[2-(2,6-dioxopiperidin-3-yl)-4-methyl-1,3-dioxo-2,3-dihydro-1H-isoindol-5-yl]-2,5-dimethylpiperazin-1-yl]cyclobutoxy]piperidin-1-yl}pyrimidin-4-yl)amino]-2-oxo-1-(propan-2-yl)-1,2-dihydroquinolin-3-yl}oxy)-N-methylacetamide], the 50% degradation concentration (DC50) was < 10 nM and the Dmax is ≥ 70%.

Take `CNC(=O)COc1cc2cc(Nc3nc(N4CCC(O[C@H]5C[C@H](N6CCC(c7cc(C)c8c(c7F)CN(C7CCC(=O)NC7=O)C8=O)CC6)C5)CC4)ncc3Cl)ccc2n(C(C)C)c1=O` (stereo partly shown) [Compound 208, 2-({6-[(5-chloro-2-{4-[(1r,3r)-3-{4-[2-(2,6-dioxopiperidin-3-yl)-4-fluoro-7-methyl-1-oxo-3H-isoindol-5-yl]piperidin-1-yl}cyclobutoxy]piperidin-1-yl}pyrimidin-4-yl)amino]-1-isopropyl-2-oxoquinolin-3-yl}oxy)-N-methylacetamide]: the half-maximal degradation concentration (DC50) was < 10 nM and the Dmax was ≥ 70%.
